Test results from PMC3392958, “Assay Format as a Critical Success Factor for Identification of Novel Inhibitor Chemotypes of Tissue-Nonspecific Alkaline Phosphatase from High-Throughput Screening” (Molecules, 2010).
Read-outs that look alike come from different tables or passages of the source. Each block holds one molecule with its values, some of them ahead of it.

Key:
[1] = target: T1, TNAP (Homo sapiens, UniProt P05186); assay: TNAP luminescent assay (CDP-star substrate, 100 mM DEA); format: biochemical
T1 construct: made in house; host or cells: COS-1 cells, transient expression; dialyzed serum-free conditioned medium
T1 sequence (P05186 18-501 limits assumed): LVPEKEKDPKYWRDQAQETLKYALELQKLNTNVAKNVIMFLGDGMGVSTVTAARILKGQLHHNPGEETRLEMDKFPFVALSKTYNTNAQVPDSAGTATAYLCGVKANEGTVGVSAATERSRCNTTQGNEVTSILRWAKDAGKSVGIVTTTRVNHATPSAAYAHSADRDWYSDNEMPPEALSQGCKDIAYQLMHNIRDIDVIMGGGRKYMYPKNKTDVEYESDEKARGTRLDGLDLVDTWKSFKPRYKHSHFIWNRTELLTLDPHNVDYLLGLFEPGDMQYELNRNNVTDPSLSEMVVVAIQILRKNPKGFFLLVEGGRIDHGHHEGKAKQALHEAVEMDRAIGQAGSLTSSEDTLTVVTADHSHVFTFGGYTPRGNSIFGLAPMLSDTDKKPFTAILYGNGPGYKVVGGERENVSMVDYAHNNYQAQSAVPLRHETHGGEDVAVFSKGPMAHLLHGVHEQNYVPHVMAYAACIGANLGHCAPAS
Protocol: (§1) Development of the novel luminescent TNAP assay using CDP-star substrate and detailed protocol of its application for HTS is described in more detail elsewhere. […] Briefly, the assay was 50 μM CDP-star substrate in assay buffer containing 100 mM DEA-HCl (pH 9.8), 1 mM MgCl2, and 20 μM ZnCl2. The luminescence signal was measured after a 30-min incubation at room temperature on an EnVision plate reader (PerkinElmer, Waltham, MA). […] Detailed protocols can be found in the respective AIDs, however, the final buffer conditions were 100 mM DEA, pH 9.8, 1.0 mM MgCl2, 0.02 mM ZnCl2 for both PLAP and IAP.

[2] = target: T2, human PLAP (Homo sapiens, UniProt P05187); assay: PLAP luminescent assay (CDP-star); format: biochemical
T2 construct: made in house; host or cells: COS-1 cells, transient expression; dialyzed serum-free conditioned medium
Protocol: (§2) Selectivity of Primary Actives Against other Phosphatases: To assess the selectivity of compounds across the alkaline phosphatase family, luminescent assays were developed for human PLAP and human IAP with the same CDP-Star reagent.
as §1

[3] = target: GAPDH (Homo sapiens, UniProt P04406); assay: Glyceraldehyde-3-phosphate dehydrogenase (GAPDH) assay; format: biochemical
Protocol: (§3) An additional sub-micromolar IAP assay using p-nitrophenol phosphate (pNPP) as substrate was developed at the CPCCG and was utilized for hit confirmation. Lead compounds were tested in a panel of assays consisting of: (1) TNAP luminescent assay (substrate: CDP-star); (2) TNAP colorimetric assay (substrate: pNPP); (3) PLAP luminescent assay (substrate: CDP-star); (4) IAP luminescent assay (substrate: CDP-star); (5) IAP colorimetric assay (substrate: pNPP); (6) solubility and (7) glyceraldehyde-3-phosphate dehydrogenase (GAPDH) assay. The latter two assays are designed to identify compounds that are likely to interfere with the assay components and would appear as non-specific inhibitors. Our approach to exploring the SAR for the IAP inhibitor series is shown graphically in Figure 8.
The National Institutes of Health (NIH) Molecular Libraries Small Molecule Repository (MLSMR, http://www.mli.nih.gov/mlsmr) supplied the compound library. The MLSMR, funded by the NIH, is responsible for the selection of small molecules for HTS screening, their purchase and quality control (QC) analysis, library maintenance, and distribution within the NIH Molecular Libraries Screening Center Network (MLSCN, http://www.mli.nih.gov/mlscn). Both MLSMR and MLSCN are parts of the Molecular Libraries Initiatives (MLI, http://nihroadmap.nih.gov/molecularlibraries) under the NIH Roadmap Initiatives (www.nihroadmap.nih.gov). MLSMR compounds are acquired from commercial and in part from academic and government sources and are selected based on the following criteria: samples are available for resupply in 10-mg quantity, are at least 90% pure, have acceptable physicochemical properties, and contain no functional groups or moieties that are known to generate artifacts in HTS (http://mlsmr.glpg.com/). Compounds are selected to represent diversified chemical space with clusters of closely related analogs around them to aid in the HTS-based structure-activity relationship (SAR) analysis. […]

[4] = target: T3, IAP (Homo sapiens, UniProt P09923); assay: IAP luminescent assay (CDP-star); format: biochemical
T3 construct: made in house; host or cells: COS-1 cells, transient expression; dialyzed serum-free conditioned medium
T3 sequence (P09923 20-503 limits assumed): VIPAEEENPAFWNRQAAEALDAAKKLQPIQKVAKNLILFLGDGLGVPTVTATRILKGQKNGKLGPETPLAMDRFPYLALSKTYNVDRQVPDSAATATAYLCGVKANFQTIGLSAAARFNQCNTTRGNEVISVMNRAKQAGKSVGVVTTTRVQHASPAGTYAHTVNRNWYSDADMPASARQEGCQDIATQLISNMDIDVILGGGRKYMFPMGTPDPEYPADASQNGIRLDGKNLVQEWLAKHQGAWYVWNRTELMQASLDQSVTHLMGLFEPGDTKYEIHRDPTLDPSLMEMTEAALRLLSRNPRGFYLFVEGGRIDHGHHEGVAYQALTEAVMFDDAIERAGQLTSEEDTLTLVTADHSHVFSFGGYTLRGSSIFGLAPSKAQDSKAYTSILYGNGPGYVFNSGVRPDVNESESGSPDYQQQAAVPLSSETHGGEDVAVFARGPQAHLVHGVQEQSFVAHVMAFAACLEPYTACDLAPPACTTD
Protocol: as §2, §1

[5] = Solubility in aqueous solutions; format: physicochemical; settings: read-out: concentrations at which compound is soluble
Protocol: as §3
The National Institutes of Health (NIH) Molecular Libraries Small Molecule Repository (MLSMR, http://www.mli.nih.gov/mlsmr) supplied the compound library. […] MLSMR compounds are acquired from commercial and in part from academic and government sources and are selected based on the following criteria: samples are available for resupply in 10-mg quantity, are at least 90% pure, have acceptable physicochemical properties, and contain no functional groups or moieties that are known to generate artifacts in HTS (http://mlsmr.glpg.com/). […]

[6] = Stability in rat liver microsomes (RLM); format: in vitro ADME; settings: 20-minute incubation
[7] = tested on: primary calvarial osteoblast cultures; assay: Calcification in primary calvarial osteoblast cultures; format: cell-based, mouse; settings: 30 µM, osteoblasts of WT mice cultured 19 days
Protocol: Figure 5 Suppression of calcification by CID-2931238 in primary calvarial osteoblast cultures. Osteoblasts from calvaria bones of WT mice were cultured for 19 days. Media supplemented with 50 µg/mL ascorbic acid and 10 mM β-glycerophosphate were renewed every second or third day (total seven medium changes). The concentration of each compound was maintained at 30 µM. RAU = relative absorbance units.

[8] = parameters: method as in PubChem; settings: assays deposited in PubChem; ref PubChem; cited from earlier work
[9] = target: T1, TNAP; parameters: method as in PMID 17638573; settings: existing inhibitors of TNAP; read-out: TNAP- Color Ki; cited from earlier work
[10] = target: T1, TNAP; assay: TNAP colorimetric assay (pNPP substrate, OD405, 1M DEA); format: biochemical; settings: unit not given in Table 8; n=6; read-out: TNAP-Color
Protocol: The colorimetric TNAP assay was performed as previously described with slight modifications.

[11] = target: T3, IAP; assay: IAP colorimetric assay (pNPP); format: biochemical; settings: unit not given in Table 8; n=7; read-out: IAP-Color
Protocol: as §3

[12] = tested on: CYP2C19; parameters: method as in PubChem; settings: @ 5 µM; ref PubChem; cited from earlier work
[13] = tested on: CYP2C9; parameters: method as in PubChem; settings: @ 5 µM; ref PubChem; cited from earlier work

T2 sequence (P05187 23-506 limits assumed): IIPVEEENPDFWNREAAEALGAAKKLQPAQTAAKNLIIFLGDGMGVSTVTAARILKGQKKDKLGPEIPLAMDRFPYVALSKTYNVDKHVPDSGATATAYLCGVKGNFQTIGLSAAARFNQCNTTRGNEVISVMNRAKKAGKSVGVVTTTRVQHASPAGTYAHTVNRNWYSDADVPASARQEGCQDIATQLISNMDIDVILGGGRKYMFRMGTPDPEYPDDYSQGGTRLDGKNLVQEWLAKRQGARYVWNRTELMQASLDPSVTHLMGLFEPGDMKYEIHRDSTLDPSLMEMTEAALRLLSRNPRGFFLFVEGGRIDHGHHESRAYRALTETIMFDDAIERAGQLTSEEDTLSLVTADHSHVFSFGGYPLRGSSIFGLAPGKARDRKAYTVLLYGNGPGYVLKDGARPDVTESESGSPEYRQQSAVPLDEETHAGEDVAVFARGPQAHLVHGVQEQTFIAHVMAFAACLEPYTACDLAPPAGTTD
Chain of GAPDH (P04406 whole entry, species assumed): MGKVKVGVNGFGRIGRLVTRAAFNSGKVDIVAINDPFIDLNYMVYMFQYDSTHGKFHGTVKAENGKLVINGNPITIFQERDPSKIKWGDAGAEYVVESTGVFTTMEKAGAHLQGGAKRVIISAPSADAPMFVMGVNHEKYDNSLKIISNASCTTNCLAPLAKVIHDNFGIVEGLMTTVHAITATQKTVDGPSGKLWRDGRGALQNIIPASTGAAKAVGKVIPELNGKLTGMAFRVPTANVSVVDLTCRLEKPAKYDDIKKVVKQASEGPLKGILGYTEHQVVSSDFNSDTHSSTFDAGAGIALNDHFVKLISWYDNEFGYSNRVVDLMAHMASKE

selectivity index against the closest counter-targets (PLAP, GAPDH) [1]: > 2,000 fold
IC50 ([1]; TNAP, read-out: IC50 (Figure 6, pyrazole series optimization)): 5 nM
IC50 ([1]; read-out: TNAP IC50, luminescent assay): 5.19 nM
inhibition of PLAP ([2]; at or below 10 µM): did not show any inhibition
inhibition of GAPDH ([3]; at or below 10 µM): did not show any inhibition
SMILES: O=C(NCCO)c1cc(-c2ccc(Cl)c(Cl)c2Cl)n[nH]1 [MLS-0146291]

inhibition of PLAP ([2]; at or below 100 µM): did not show any inhibition
IC50 ([2]; read-out: Selectivity Panel IC50 PLAP): > 100000 nM
inhibition of IAP ([4]; at or below 100 µM): did not show any inhibition
IC50 ([4]; read-out: Selectivity Panel IC50 IAP): > 100000 nM
solubility [5]: < 25 µM
effect on GAPDH activity [3]: no effect
compound remaining in rat liver microsomes [6]: virtually all-of-the compound remained
SMILES: COc1ccc(OC)c(S(=O)(=O)Nc2cnc3ccccc3c2)c1 [MLS-0038949]
inhibition of mineralization [7]: completely inhibited mineralization
cytotoxicity [8]: no cytotoxicity

SMILES: O=C(c1ccccc1)C(Sc1nnc[nH]1)c1ccccc1 (stereo not shown) [MLS-5361418]
Ki [9]: 5600 nM

SMILES: Cn1cnnc1Sc1nc(Nc2ccccc2)nc(Nc2ccccc2)n1 [MLS-5804079]
Ki [9]: 6500 nM

IC50 [10]: > 100000 nM
IC50 ([1]; phtalimide triazole series, read-out: IC50 TNAP- Lumi): 800 nM
IC50 ([1]; unit not given in Table 8, n=7, read-out: TNAP-Lumi): 795 nM
IC50 ([2]; unit not given in Table 8, n=3, read-out: PLAP-Lumi): 4810 nM
mode of IAP inhibition versus the CDP-star substrate [4]: non-competitive
potency relative to all other existing small-molecule inhibitors of IAP [4]: > 6,500 fold
selectivity for IAP over TNAP [4]: 7 fold
IC50 ([4]; phtalimide triazole series, read-out: IC50 IAP-Lumi): 120 nM
IC50 ([4]; unit not printed in Table 8 ([…]), n=7, read-out: IAP-Lumi): 122 nM
IC50 [11]: 1380 nM
solubility [5]: < 25 µM
effect on GAPDH activity [3]: no effect
SMILES: O=C1C2CC=CCC2C(=O)N1c1nc(-c2ccccc2)n[nH]1 (stereo not shown) [CID-2946732]
cytotoxicity [8]: no cytotoxicity
2C19 [12]: 79.6% I @
2C9 [13]: 92.5% I @
